The values below come from US11352391B2, “Compositions for inducing urinary voiding and defecation” (Dignify Therapeutics, LLC, priority 2017, dated 2022).

In experiment [1] the target is T1, human NK2 Receptor (hNK2R) (Homo sapiens, UniProt P21452).
T1 sequence (P21452 1-398): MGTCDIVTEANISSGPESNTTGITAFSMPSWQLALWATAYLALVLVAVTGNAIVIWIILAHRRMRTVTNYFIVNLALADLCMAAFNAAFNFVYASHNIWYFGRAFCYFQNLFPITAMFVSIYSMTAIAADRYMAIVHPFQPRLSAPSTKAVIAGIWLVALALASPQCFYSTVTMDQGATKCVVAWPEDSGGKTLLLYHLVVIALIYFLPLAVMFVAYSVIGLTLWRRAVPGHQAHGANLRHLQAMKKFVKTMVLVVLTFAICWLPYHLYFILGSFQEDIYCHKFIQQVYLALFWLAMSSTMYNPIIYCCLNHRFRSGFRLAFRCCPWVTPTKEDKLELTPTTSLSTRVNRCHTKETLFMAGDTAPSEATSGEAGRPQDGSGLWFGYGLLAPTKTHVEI
In words: [125I]-NKA radioligand competition binding to human recombinant NK2Rs (CHO-hNK2 membranes). How it is done: (§1) After removal of the supernatant the cell pellet was washed and collected by re-suspension in PBS and centrifugation.
(§2) Frozen pellets were thawed and homogenized in 10 volumes (w/v) of membrane preparation buffer (50 mM HEPES pH 7.4, 1 mM EDTA, 50 μg/mL bacitracin and protease inhibitors) using a Polytron Ultraturrax (twice for 15 s per cycle). […] Protein concentration was determined using BioRad Protein Assay (Milan, Italy) with a BSA standard curve.
Background: Loss of bound radioactivity is the signal in a displacement assay; it reports binding, not function.

Experiment [2] deals with human NK1 Receptor (hNK1R) (Homo sapiens, UniProt P25103). In words: [3H]-septide radioligand competition binding to human recombinant NK1Rs (CHO-hNK1 membranes). Particulars: displacement of 5.0 nM [3H]-septide, CHO-hNK1 membranes; read-out: hNK1 binding Ki. How it is done:
as §1, §2

Experiment [3] relates to anesthetized acute spinal cord injured (aSCI) rat. The experiment in a line: Isovolumetric bladder pressure in anesthetized acute spinal cord injured (aSCI) rats. Format: in vivo. How it is done: (§3) Methods: Studies were conducted in acutely spinal transected rats under isovolumetric bladder pressure recording conditions. Acute spinal cord injury (aSCI) is an in vivo model of isolated bladder smooth muscle contraction without reinforcement from micturition reflexes (i.e., myogenic, not neurogenic, contraction). Thus, it can be viewed as a model of severe bladder underactivity.
Animal preparation: In vivo studies were performed in anesthetized, acutely spinalized (T8-10 level) rats. Rats were anesthetized with urethane (1.2-1.4 g/kg subcutaneous injection). Surgical procedures were then performed with the addition of isoflurane anesthesia (0.05-1.5% in 02) as needed.
For aSCI, the skin and muscle on the dorsal side at the level of the lower thoracic vertebrae were incised and the spinal cord was carefully exposed by a laminectomy and transected at the T8-T10 spinal level. Gelfoam was placed at the incision site and the muscle and skin overlying the vertebrae were closed with wound clips. The spinal cord was cut at least 60 min before starting the experimental protocol. […]
(§4) Data analysis: Data were examined qualitatively and quantitatively. The mean, standard deviation and standard error of the mean were calculated using MICROSOFT EXCEL.

The test system is the same in experiment [4]. The experiment in a line: Colorectal (bowel) pressure manometry in anesthetized aSCI rats. Format: in vivo. The note with it: doses >10 μg/kg SC. How it is done: as §3
Animal preparation: In vivo studies were performed in anesthetized, acutely spinalized (T8-10 level) rats. Rats were anesthetized with urethane (1.2-1.4 g/kg subcutaneous injection). Surgical procedures were then performed with the addition of isoflurane anesthesia (0.05-1.5% in 02) as needed. […]
Bowel Contractility: Colorectal pressure manometry was performed via a latex balloon catheter (length 3-5 cm) inserted (˜4 cm) into the distal rectal/colon region. […] This allowed drug induced changes in colorectal pressure to be monitored. Parameters measured include peak colorectal pressure response, duration of time above baseline activity (in the 1st 5 min after drug administration), area under the curve (measured during the 1st 5 min after drug administration) and the number of contractile events after vehicle and drug administration. […]
as §4

A further experiment relates to anesthetized dog. The experiment in a line: Urine leakage from the bladder in anesthetized dog. Format: in vivo. Particulars: IV 3 μg/kg and SC 30 μg/kg, data not shown. How it is done: Animal preparation: Naïve beagle dogs were fasted for 12-24 hours and received a warm water enema the night prior to, and the morning of, the experiment to clear the rectum and lower colon of feces. The day of the experiment, a 20 gauge IV catheter (Terumo Surflo) was placed in the cephalic vein for anesthetic induction (propofol, 10 mg/kg; IV) and delivery of IV fluids (5-10 ml/kg/hr) and compounds. The sedated dog was intubated with a 5-6 Fr tracheal tube and was maintained on 2-3% isoflurane via a ventilator (15-25 breaths/min; tidal volume […]) for the remainder of the experiment.

The structures appear in SMILES notation. Where a SMILES comes first, the peptide text is derived from it. A value given as a limit tells only on which side of the number the result lay.

Chain of human NK1 Receptor (hNK1R) (P25103 whole entry): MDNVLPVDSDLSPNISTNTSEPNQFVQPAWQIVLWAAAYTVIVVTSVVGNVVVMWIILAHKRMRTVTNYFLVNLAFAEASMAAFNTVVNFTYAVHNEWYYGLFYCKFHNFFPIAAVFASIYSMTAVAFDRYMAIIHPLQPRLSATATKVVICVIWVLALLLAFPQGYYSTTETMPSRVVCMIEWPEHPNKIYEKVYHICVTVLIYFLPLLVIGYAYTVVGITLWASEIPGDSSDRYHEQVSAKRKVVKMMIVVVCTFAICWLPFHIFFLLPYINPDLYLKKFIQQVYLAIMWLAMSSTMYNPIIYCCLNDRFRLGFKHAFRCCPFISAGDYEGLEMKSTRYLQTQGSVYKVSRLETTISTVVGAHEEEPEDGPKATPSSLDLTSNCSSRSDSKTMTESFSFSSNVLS

A word on the Ki: it is a dissociation constant, usually derived from enzyme kinetics or from competition with a known ligand. As to `CCCC[C@H](NC(=O)[C@H](CC(C)C)N(C)C(=O)CNC(=O)[C@@H](NC(=O)[C@H](Cc1ccccc1)NC(=O)[C@H](CCCNC(=N)N)NC(=O)[C@@H](N)CC(=O)O)C(C)C)C(N)=O` [Compound B, Asp-Arg-Phe-Val-Gly-(NMe-Leu)-Nle-NH2] (HELM PEPTIDE1{D.R.F.V.G.[meL].[Nle].[am]}$$$$V2.0; N-terminus assumed), the Ki stood at 0.59 nM in experiment [1] (displacement of 0.1 nM [125I]-NKA, CHO-hNK2 membranes, read-out: hNK2 binding Ki) and 331 nM in experiment [2]. Also, in experiment [1] (ratio of Kis hNK1R/hNK2R), the hNK2 selectivity ratio was determined as 557.83. In experiment [3] (SC, anesthetized aSCI rat), the “onset of increase in bladder contraction pressure” value was less than 2 min. Besides, the “bladder activity (peak bladder pressure)” value in experiment [3] (doses >10 μg/kg SC, aSCI rat) is “measurable increases in bladder activity”. In experiment [4], the “bowel activity (bowel pressure AUC, first 5 min)” value is “measurable increases in bowel activity”. The “urine leakage / induction of voiding” value in the experiment on anesthetized dog is “leakage of urine from the bladder”.
